Experimental data from US11484543B2, “Compositions and methods for diagnosing and treating diseases and disorders associated with mutant KCNJ5” (The Rockefeller University, priority 2017, dated 2022).

Target: T1, KCNJ5^L168R (Homo sapiens, UniProt P48544, L168R)
T1 construct: expressed in transfected cells
T1 sequence (P48544 1-419 L168R): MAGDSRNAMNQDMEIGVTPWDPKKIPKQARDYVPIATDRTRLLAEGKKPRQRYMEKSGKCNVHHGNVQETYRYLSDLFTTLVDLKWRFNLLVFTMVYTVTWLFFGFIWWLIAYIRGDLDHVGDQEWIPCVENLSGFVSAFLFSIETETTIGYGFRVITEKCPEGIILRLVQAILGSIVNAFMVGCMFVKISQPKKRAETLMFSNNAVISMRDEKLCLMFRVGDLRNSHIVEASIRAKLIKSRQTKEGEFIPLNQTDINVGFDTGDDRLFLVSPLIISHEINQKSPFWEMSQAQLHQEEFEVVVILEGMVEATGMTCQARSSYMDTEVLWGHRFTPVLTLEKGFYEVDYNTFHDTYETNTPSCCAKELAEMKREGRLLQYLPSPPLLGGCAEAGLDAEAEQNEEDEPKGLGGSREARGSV
Assay: Cell viability assay (ATP, CellTiter-Glo): rescue of KCNJ5^L168R-induced lethality in inducible HEK293 cells
Assay type: cell-based

Molecule	L168R maximum inhibition (10-point dilution 20 to 0.0391 μM, N=3, four-parameter fit)	dose response on KCNJ5^L168R (tested at 1.1, 3.3 and 10 μM)	inhibition of KCNJ5^L168R by synthesized macrolide derivatives (tested as in FIG. 7 (FIGS. 9 and 10))
CC[C@H]1OC(=O)[C@H](C)[C@@H](O[C@H]2C[C@@](C)(OC)[C@@H](O)[C@H](C)O2)[C@H](C)[C@@H](O[C@@H]2O[C@H](C)C[C@H](N(C)C)[C@H]2O)[C@](C)(O)C[C@@H](C)/C(=N\OCOCCOC)[C@H](C)[C@@H](O)[C@]1(C)O [Roxithromycin, roxithromycin]	81.39%	showed a dose response	
N-demethyl-N-isobutyl-8,9-anhydroerythromycin A 6,9-hemiacetal [PLUX37]			significant inhibition
